Several values for one entry are separate records, joined by “and”; a condition that tells them apart may be missing. Equal values may be shown once.
Tests used:
[1] = target: T1, human recombinant serotonin 5-HT2A receptor (Homo sapiens, UniProt P28223); experiment: Serotonin 5-HT2A agonist/antagonist functional assay (calcium fluorescence, HEK-293); format: cell-based; settings: antagonist mode
T1 construct: expressed in transfected cells; host or cells: HEK-293 cells
Text: To determine for agonist or antagonist activity of compounds of the invention in functional assays, human recombinant serotonin 5-HT2A receptor expressed in human embryonic kidney (HEK-293) cells (Jerman J C, Brough S J, Gager T, Wood M, Coldwell M C, Smart D and Middlemiss D N. Eur J Pharmacol, 414: 23-30, 2001) was used. Cells were suspended in DMEM buffer, and distributed in microplates. A cytoplasmic calcium fluorescent indicator which varies proportionally to the free cytosolic Ca^2+ ion concentration was mixed with probenicid in HBSS buffer complemented with 20 mM Hepes (pH 7.4), added into each well and equilibrated with the cells for 30 min at 37° C. followed by 30 min at 22° C. […]
The standard reference antagonist was ketanserin, which was tested in each experiment at several concentrations to generate a concentration-response curve from which its IC50 value was calculated.

[2] = target: human recombinant dopamine D2S receptor (Homo sapiens, UniProt P14416); experiment: Dopamine D2S antagonist activity ([35S]GTPγS binding, SPA); format: biochemical; settings: for Antagonist Activity As Measured by % Inhibition D2S / inhibition at 0.03 µM / inhibition at 0.1 µM / inhibition at 0.3 µM: two values = assay run twice; for inhibition at 0.03 µM / inhibition at 0.1 µM / inhibition at 0.3 µM / inhibition at 1 µM / inhibition at 3 µM: read-out: Antagonist Activity As Measured by % Inhibition D2S
Chain of human recombinant dopamine D2S receptor (P14416 1-414 isoform P14416-2): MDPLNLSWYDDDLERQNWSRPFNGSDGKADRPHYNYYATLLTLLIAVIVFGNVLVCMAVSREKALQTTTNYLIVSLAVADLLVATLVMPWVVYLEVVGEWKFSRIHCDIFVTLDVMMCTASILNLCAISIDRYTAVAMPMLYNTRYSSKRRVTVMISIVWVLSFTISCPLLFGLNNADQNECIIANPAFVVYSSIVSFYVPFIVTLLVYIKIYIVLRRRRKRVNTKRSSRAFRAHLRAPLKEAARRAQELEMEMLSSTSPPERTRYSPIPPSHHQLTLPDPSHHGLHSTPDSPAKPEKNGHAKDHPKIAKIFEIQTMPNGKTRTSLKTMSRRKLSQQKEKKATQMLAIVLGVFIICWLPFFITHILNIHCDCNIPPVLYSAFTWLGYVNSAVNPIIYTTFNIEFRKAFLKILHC
Experimental: To determine for agonist or antagonist activity of compounds of the invention in functional assays, human recombinant dopamine D2S receptor stably expressed in Chinese hamster ovary (CHO) cells (Gilliland S L and Alper R H. Naunyn-Schmiedeberg's Archives of Pharmacology. 361: 498, 2000) was used. Compounds of invention were pre-incubated with the membranes (0.05 mg/ml) and 3 μM GDP in modified HEPES buffer (20 mM HEPES, pH 7.4, 100 mM NaCl, 10 mM MgCl2, 1 mM DTT, 1 mM EDTA) for 20 minutes and Scintillation Proximity Assay (SPA) beads were then added for another 60 minutes at 30° C. The reaction was initiated by 0.3 nM [^35S]GTPγS for an additional 30 minute incubation period. […] Compounds were screened at 3 μM or lower, using 0.4% DMSO as vehicle. Assay results are presented as the percent response of specific binding in Table 9.

[3] = system: synaptosomes of cortex of rat brain; experiment: Glutamate-induced 45Ca2+ uptake into synaptosomes; format: biochemical, Wistar rats; settings: for % Ca of control (control-100%), glutamate-induced 45Ca2+ uptake into synaptosomes: rat cortex synaptosomes
Method in brief: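 Cortical synaptosomes (P2 fraction) from 9-10-day-old Wistar rats, ~1.5-2 mg/ml protein in HEPES-buffered saline with glucose, pH 7.4, stimulated 5 min with 200 μM glutamate at 37° C. 45Ca2+ uptake measured by filtration and scintillation counting; specific uptake with compound expressed as percentage of glutamate-induced uptake, each corrected for unstimulated uptake.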

T1 sequence (P28223 whole entry): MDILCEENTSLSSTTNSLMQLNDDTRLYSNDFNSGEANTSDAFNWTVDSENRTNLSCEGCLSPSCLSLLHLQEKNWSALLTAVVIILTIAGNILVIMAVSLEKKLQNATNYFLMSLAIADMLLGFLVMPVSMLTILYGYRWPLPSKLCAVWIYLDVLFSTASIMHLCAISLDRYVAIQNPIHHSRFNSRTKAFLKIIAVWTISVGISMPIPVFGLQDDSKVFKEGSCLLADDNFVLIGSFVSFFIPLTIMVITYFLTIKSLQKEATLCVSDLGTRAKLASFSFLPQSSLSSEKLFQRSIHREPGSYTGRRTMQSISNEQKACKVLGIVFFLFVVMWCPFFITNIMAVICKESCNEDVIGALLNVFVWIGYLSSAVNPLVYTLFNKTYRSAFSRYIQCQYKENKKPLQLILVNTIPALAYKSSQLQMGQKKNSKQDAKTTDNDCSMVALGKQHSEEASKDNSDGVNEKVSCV

Compound	% of Control Agonist Response, 1st Assay ([1]; test concentration 1.00E−07 M)	% of Control Agonist Response, 2nd Assay ([1]; test concentration 1.00E−07 M)	% of Control Agonist Response, Mean ([1]; test concentration 1.00E−07 M)	% of Control Agonist Response, Mean ([1]; test concentration 3.00E−06 M)	% of Control Agonist Response, 2nd Assay ([1]; test concentration 3.00E−07 M)	% of Control Agonist Response, 1st Assay ([1]; test concentration 3.00E−08 M)	% of Control Agonist Response, 2nd Assay ([1]; test concentration 3.00E−08 M)	% of Control Agonist Response, Mean ([1]; test concentration 3.00E−08 M)	Antagonist Activity As Measured by % Inhibition D2S ([2]; 0.03 uM)	inhibition at 0.03 µM ([2]; 0.03 uM)	inhibition at 0.1 µM ([2]; 0.1 uM)	Antagonist Activity As Measured by % Inhibition D2S ([2]; 0.3 uM)	inhibition at 0.3 µM ([2]; 0.3 uM)	inhibition at 1 µM [2]	inhibition at 3 µM [2]	further results
CN1CCc2c(c3cc(Cl)ccc3n2CCc2ccccc2)C1 [Compound 36, 8-chloro-2,3,4,5-tetrahydro-2-methyl-5-phenethyl-1H-pyrido[4,3-b]indole]	111% and 100% and 105%	102% and 106% and 115%	106.4% and 103% and 109.9%	5.3% and 9.7% and 0.4%	105% and 98% and 97%	109%	108%	108.7%	85%	76%	97%	104%	98%	102%	107%	% of Control Agonist Response, 1st Assay ([1]; test concentration 3.00E−07 M): 92% and 109%; % of Control Agonist Response, Mean ([1]; test concentration 3.00E−07 M): 98.8% and 94.8% and 102.8%
COc1ccc(CCn2c3c(c4cc(C)ccc42)CN(C)CC3)cc1 [Compound 247]	117% and 93%	116% and 94% and 95%	116.5% and 93.5% and 93.9%	−3.2%	76% and 72% and 38%	122% and 103%	120% and 108% and 111%	121.3% and 104.5% and 107%	68%	67%	97%	93%	81%	110%	108%	% of Control Agonist Response, 1st Assay ([1]; test concentration 1.00E−06 M): −4% and −2% and 2%; % of Control Agonist Response, 2nd Assay ([1]; test concentration 1.00E−06 M): 0% and 3%; % of Control Agonist Response, Mean ([1]; test concentration 1.00E−06 M): −1.7% and 0.3% and 0.7%; % of Control Agonist Response, 1st Assay ([1]; test concentration 3.00E−06 M): −4%; % of Control Agonist Response, 2nd Assay ([1]; test concentration 3.00E−06 M): −3%; Antagonist Activity As Measured by % Inhibition D2S ([2]; 0.1 uM): 89%
CN1CCc2c(c3cc(F)ccc3n2CCc2nc(-c3ccccc3)cs2)C1 [Compound C1-7]	–	–	–	–	–	–	–	–	–	–	–	–	–	–	–	concentration at which glutamate-induced 45Ca2+ uptake into synaptosomes was increased [3]: 5 to 100 µM; inhibition of glutamate-induced 45Ca2+ uptake into synaptosomes ([3]; 0.1-0.5 μM): ~27.3%; glutamate-induced 45Ca2+ uptake into synaptosomes of rat cortex, % Ca of control (control-100%) ([3]; C 100 μM): 139.8%; % Ca of control (control-100%), glutamate-induced 45Ca2+ uptake into synaptosomes ([3]; compound 0.1 μM): 77.5 ± 2.4%; % Ca of control (control-100%), glutamate-induced 45Ca2+ uptake into synaptosomes ([3]; compound 0.5 μM): 72.7 ± 0.3%; % Ca of control (control-100%), glutamate-induced 45Ca2+ uptake into synaptosomes ([3]; compound 1 μM): 98.6 ± 2.4%; % Ca of control (control-100%), glutamate-induced 45Ca2+ uptake into synaptosomes ([3]; compound 5 μM): 131.8 ± 8.8%; % Ca of control (control-100%), glutamate-induced 45Ca2+ uptake into synaptosomes ([3]; compound 10 μM): 134.5 ± 9.2%; % Ca of control (control-100%), glutamate-induced 45Ca2+ uptake into synaptosomes ([3]; compound 50 μM): 126.7 ± 7.7%; % Ca of control (control-100%), glutamate-induced 45Ca2+ uptake into synaptosomes ([3]; compound 100 μM): 139.8 ± 6.5%

Reference: patent US9096591B2, “Tetracyclic compounds” (Medivation Technologies, Inc., priority 2007, dated 2015)
